The results in this text go back to ChEMBL document CHEMBL1255560, “2-, 3-, and 4-(1-Oxo-1H-2,3-dihydroisoindol-2-yl)benzoic acids and their corresponding organotin carboxylates: synthesis, characterization, fluorescent, and biological activities” (2010).

Common to all, as to assay type: functional
One test deals with Escherichia coli. Put plainly: Antibacterial activity against Escherichia coli by double dilution technique.
Another test relates to Pseudomonas aeruginosa. Put plainly: Antibacterial activity against Pseudomonas aeruginosa by double dilution technique.
In a further test the test system is Staphylococcus aureus. The test can be described thus: Antibacterial activity against Staphylococcus aureus by double dilution technique.
The test system of the next test is Candida albicans. The test can be described thus: Antifungal activity against Candida albicans by double dilution technique.

The structures appear in SMILES notation. ≈ marks a conversion by molar mass, not a printed value.

Broadly, the MIC is the smallest concentration in the dilution series that meets the test's criterion for growth inhibition. As to `O=C(O)c1cccc(N2Cc3ccccc3C2=O)c1`, the MIC with Escherichia coli came out at 0.625 µg/mL (≈ 2.47 µM); against Pseudomonas aeruginosa, 0.625 µg/mL (≈ 2.47 µM); against Staphylococcus aureus it was 1.25 µg/mL (≈ 4.94 µM); with Candida albicans it was 0.625 µg/mL (≈ 2.47 µM).

On to `O=C(O)c1ccccc1N1Cc2ccccc2C1=O`, for which the MIC in the test with Escherichia coli stood at 2.5 µg/mL (≈ 9.87 µM); with Pseudomonas aeruginosa, 1.25 µg/mL (≈ 4.94 µM); against Staphylococcus aureus it was 2.5 µg/mL (≈ 9.87 µM); against Candida albicans, 1.25 µg/mL (≈ 4.94 µM).

As for `O=C(O)c1ccc(N2Cc3ccccc3C2=O)cc1`, the MIC against Escherichia coli stood at 1.25 µg/mL (≈ 4.94 µM); with Pseudomonas aeruginosa it was 0.625 µg/mL (≈ 2.47 µM); against Staphylococcus aureus, 1.25 µg/mL (≈ 4.94 µM); against Candida albicans it was 1.25 µg/mL (≈ 4.94 µM).
